Results as given in article PMC9369311, “Examination of Intracellular GPCR-Mediated Signaling with High Temporal Resolution” (International Journal of Molecular Sciences, 2022).

How the values were obtained:
[1] = in vitro; read-out: dissociation constant (Kd) for Ca2+; cited from earlier work
DmOctβ1 receptor = molecular target: T1, DmOctβ1 receptor (Drosophila melanogaster, UniProt Q9VCZ3); assay: Stopped-flow flash photolysis of caged octopamine in Fluo-4-loaded flpTM-DmOctβ1 cells; type: cell-based; conditions: for response time after UV-flash: 10 µM caged compound, 50 ms flash, 100 µM IBMX
T1 construct: expressed in transfected cells; host or cells: flpTM cells (HEK293 flpIn, Invitrogen #750-07, carrying the CNGA2 variant)
T1 sequence (Q9VCZ3 1-508): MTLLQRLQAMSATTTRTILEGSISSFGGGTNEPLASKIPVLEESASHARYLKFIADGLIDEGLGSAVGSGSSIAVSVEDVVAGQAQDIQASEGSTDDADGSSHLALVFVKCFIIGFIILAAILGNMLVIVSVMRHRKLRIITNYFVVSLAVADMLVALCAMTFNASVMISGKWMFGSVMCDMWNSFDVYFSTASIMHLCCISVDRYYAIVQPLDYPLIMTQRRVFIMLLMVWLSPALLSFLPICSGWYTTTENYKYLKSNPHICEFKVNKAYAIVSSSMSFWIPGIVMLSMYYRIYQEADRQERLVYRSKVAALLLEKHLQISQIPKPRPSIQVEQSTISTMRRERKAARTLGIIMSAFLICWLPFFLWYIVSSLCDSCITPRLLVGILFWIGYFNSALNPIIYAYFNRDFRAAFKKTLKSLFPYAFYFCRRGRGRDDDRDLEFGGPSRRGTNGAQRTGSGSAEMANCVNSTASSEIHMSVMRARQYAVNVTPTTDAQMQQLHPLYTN
From the text: Neutral density filters that regulate the transmission of light (5%, 25%, 50%, 80%, 100%) were installed, allowing application of different light intensities.
In the previous stopped-flow experiments, we initiated the DmOctβ1 receptor-activated reaction cascade by mixing cells with increasing concentrations of octopamine. Now, we used a similar strategy but substituted the biogenic amine for a constant concentration of octopamine fused to a coumarin-based cage group ({8-[bis(carboxymethyl)aminomethyl]-6-bromo-7-hydroxycoumarin-4-yl}methoxycarbon-yl; BBHCMOC-octopamine) from which the biologically active octopamine was released by light flashes. The Fluo-4-loaded flpTM-DmOctβ1 cells were mixed with a final concentration of 10 µM BBHCMOC-octopamine in the cuvette of the stopped-flow apparatus. After 2 s, a UV-flash was triggered for 50 ms and the fluorescence intensities were recorded. The time when triggering the light flash was defined as time point t = 0. Different light intensities were successively applied (5%, 25%, 50%, 80%, 100% intensity). To avoid fluctuations in the [cAMP]i due to cell-endogenous phosphodiesterase activity, the experiments were performed in the presence of 100 µM IBMX. Figure 7 summarizes the results that were obtained with BBHCMOC-octopamine.
For the photolysis of the caged compounds with ultraviolet (UV)-light, a Xe-flash lamp (JML-C2; Rapp Opto Electronics, Wedel, Germany) was coupled to the cuvette via an UV-light permeable light guide (Schott). A UV-2 interference filter was placed between the Xe-flash lamp and light guide to select for the UV-light needed for the photolysis of the caged compounds. Additionally, it prevents the photomultiplier from being hit by light that is able to pass the emission filter. […] To maximize the detection of the emission light, a test solution containing 50 nM of fluorescein in ES was added to the cuvette and the light guide was fixed to the Xe/Hg-lamp at a position where the photomultiplier detected maximal intensity.

CNG channel (A2 homomer) = conditions: read-out: EC50 for opening the CNG channel, electrophysiological experiments, ref Ludwig et al., 1990; cited from earlier work

## Cc1ccc(N(CC(=O)O)CC(=O)O)c(OCCOc2cc(-c3c4cc(F)c(=O)cc-4oc4cc(O)c(F)cc34)ccc2N(CC(=O)O)CC(=O)O)c1 [Fluo-4]
[1]
  Kd: 345 nM

## O=C(O)CN(CC(=O)O)Cc1c(O)c(Br)cc2c(COC(=O)NCC(O)c3ccc(O)cc3)cc(=O)oc12 (centres unmarked) [BBHCMOC-octopamine]
DmOctβ1 receptor; 5% light intensity
  response time after UV-flash: about 16 s
DmOctβ1 receptor; 100% light intensity
  response time after UV-flash: 6 s and ≈ 6 s
DmOctβ1 receptor; from 10 µM BBHCMOC-octopamine, based on quantum yield
  octopamine released by photolysis: approximately 1 µM

## Nc1ncnc2c1ncn2[C@@H]1O[C@@H]2COP(=O)(O)O[C@H]2[C@H]1O [cAMP, cyclic adenosine monophosphate]
CNG channel (A2 homomer)
  EC50: ~2000 nM
